This note sets out measurements from patent publication US7371766B2, “Curcumin analogs with anti-tumor and anti-angiogenic properties” (Emory University, priority 1999, dated 2008).

The test system of one test is HL-60 (TB). To be noted: read-out: Median Growth Inhibitory Concentration (GI50), Leukemia, 48 hours.
The test system of another test is K-562. The settings on record: read-out: Median Growth Inhibitory Concentration (GI50); K-562, Leukemia; 48 hours.
The next test concerns MOLT-4. To be noted: read-out: Median Growth Inhibitory Concentration (GI50); MOLT-4, Leukemia; 48 hours.
Test [1] deals with A549. To be noted: read-out: Median Growth Inhibitory Concentration (GI50); A549, Non-Small Cell Lung Cancer; 48 hours.
Test [2] concerns HOP-92. To be noted: read-out: Median Growth Inhibitory Concentration (GI50); HOP-92, Non-Small Cell Lung Cancer; 48 hours.
Another test relates to NCI-H23. To be noted: read-out: Median Growth Inhibitory Concentration (GI50); NCI-H23, Non-Small Cell Lung Cancer; 48 hours.
A further test deals with NCI-H460. To be noted: read-out: Median Growth Inhibitory Concentration (GI50); NCI-H460, Non-Small Cell Lung Cancer; 48 hours.
A further test relates to HCC-2998. The settings on record: read-out: Median Growth Inhibitory Concentration (GI50); HCC-2998, Colon Cancer; 48 hours.
The subject of the next test is HT29. The settings on record: read-out: Median Growth Inhibitory Concentration (GI50); HT29, Colon Cancer; 48 hours.
For another test, the system named is KM12. To be noted: read-out: Median Growth Inhibitory Concentration (GI50); KM12, Colon Cancer; 48 hours.
A further test deals with SW-620. The settings on record: read-out: Median Growth Inhibitory Concentration (GI50); SW-620, Colon Cancer; 48 hours.
The test system of a further test is SF-295. To be noted: read-out: Median Growth Inhibitory Concentration (GI50); SF-295, CNS Cancer; 48 hours.
The next test concerns SF-539. The settings on record: read-out: Median Growth Inhibitory Concentration (GI50); SF-539, CNS Cancer; 48 hours.
Another test deals with SNB-19. The settings on record: read-out: Median Growth Inhibitory Concentration (GI50); SNB-19, CNS Cancer; 48 hours.
Another test has as its system SK-MEL-28. To be noted: read-out: Median Growth Inhibitory Concentration (GI50); SK-MEL-28, Melanoma; 48 hours.
In the next test the test system is SK-MEL-5. To be noted: read-out: Median Growth Inhibitory Concentration (GI50); SK-MEL-5, Melanoma; 48 hours.
The next test deals with UACC-257. To be noted: read-out: Median Growth Inhibitory Concentration (GI50); UACC-257, Melanoma; 48 hours.
The next test concerns OVCAR-3. To be noted: read-out: Median Growth Inhibitory Concentration (GI50); OVCAR-3, Ovarian Cancer; 48 hours.
The test system of the next test is OVCAR-4. The settings on record: read-out: Median Growth Inhibitory Concentration (GI50); OVCAR-4, Ovarian Cancer; 48 hours.
The test system of test [3] is SK-OV-3. The settings on record: read-out: Median Growth Inhibitory Concentration (GI50); SK-OV-3, Ovarian Cancer; 48 hours.
A further test relates to 786-0. The settings on record: read-out: Median Growth Inhibitory Concentration (GI50); 786-0, Renal Cancer; 48 hours.
A further test concerns ACHN. The settings on record: read-out: Median Growth Inhibitory Concentration (GI50), Renal Cancer, 48 hours.
Another test deals with SN12C. To be noted: read-out: Median Growth Inhibitory Concentration (GI50), Renal Cancer, 48 hours.
In another test the test system is TK-10. To be noted: read-out: Median Growth Inhibitory Concentration (GI50); TK-10, Renal Cancer; 48 hours.
For a further test, the system named is PC-3. To be noted: read-out: Median Growth Inhibitory Concentration (GI50); PC-3, Prostate Cancer; 48 hours.
Another test has as its system DU-145. To be noted: read-out: Median Growth Inhibitory Concentration (GI50); DU-145, Prostate Cancer; 48 hours.
A further test deals with NCI/ADR-RES. To be noted: read-out: Median Growth Inhibitory Concentration (GI50), Breast Cancer, 48 hours.
Test [4] has as its system A549. In words: cells. The settings on record: Homo sapiens, A549, 48 h; for GI50: read-out: Median Growth Inhibitory Concentration (GI50); for CC50: read-out: Median Lethal Concentration (LC50).
For the next test, the system named is COLO 205. Briefly: cells. The settings on record: Homo sapiens, COLO 205, 48 h; for GI50: read-out: Median Growth Inhibitory Concentration (GI50); for CC50: read-out: Median Lethal Concentration (LC50).
The subject of test [5] is SK-OV-3. Briefly: cells. To be noted: Homo sapiens, SK-OV-3, 48 h; for GI50: read-out: Median Growth Inhibitory Concentration (GI50); for CC50: read-out: Median Lethal Concentration (LC50).
Test [6] has as its system HOP-92. In words: cells. The settings on record: Homo sapiens, HOP-92, 48 h; for GI50: read-out: Median Growth Inhibitory Concentration (GI50); for CC50: read-out: Median Lethal Concentration (LC50).

Where two headings read alike, the source gives them in different places.

Take “3,5-Bis(2-hydroxybenzylidene)-sulfone [EF11]”: the GI50 in the test on HL-60 (TB) came to 21.3 µM; with K-562, 27.4 µM; in the test on MOLT-4, 19.7 µM; in the test on A549 [1] it was 38.7 µM; in the test with HOP-92 [2], 23.5 µM; in the test on NCI-H23 it was 35.8 µM. Further, the GI50 in the test with NCI-H460 was found to be 30.7 µM; in the test on HCC-2998 it was 20.5 µM; with HT29, 45.9 µM; in the test with KM12, 19.1 µM; in the test with SW-620, 32.5 µM; with SF-295, 53.8 µM. Moreover, the GI50 in the test on SF-539 turned out to be 39.9 µM; in the test on SNB-19, 48 µM; in the test on SK-MEL-28, 42.5 µM; with SK-MEL-5 it was 23.2 µM; with UACC-257, 29.8 µM; with OVCAR-3 it was 41.8 µM. For the same compound, the GI50 is 28.7 µM in the test with OVCAR-4; more than 100 µM in the test on SK-OV-3 [3]; 41.3 µM in the test with 786-0; 41 µM with ACHN; 34.2 µM with SN12C; 41.2 µM in the test with TK-10. Also, the results for the GI50 with PC-3, in the test on DU-145 and in the test on NCI/ADR-RES were 34.9 µM, 29.9 µM and 86.1 µM, respectively.
In the case of `N.N.[Cl][Pt][Cl]` [Cisplatin, reference compound], the GI50 in the test on HL-60 (TB) amounted to 0.1 µM; with K-562, 1 µM; in the test on MOLT-4, 0.3 µM; in the test with A549 [1], 0.8 µM; with HOP-92 [2], 0.6 µM; in the test with NCI-H23 it was 0.1 µM. For the same compound, the GI50 with NCI-H460 came out at 0.1 µM; in the test on HCC-2998 it was 0.1 µM; with HT29, 1.3 µM; in the test on KM12, 2 µM; in the test on SW-620, 0.8 µM; with SF-295, 0.3 µM. Also, the GI50 in the test with SF-539 was 0.4 µM; in the test on SNB-19, 1 µM; in the test on SK-MEL-28, 0.8 µM; in the test on SK-MEL-5, 0.5 µM; in the test with UACC-257, 1 µM; in the test with OVCAR-3, 1 µM. Also, the GI50 came to 0.3 µM in the test on OVCAR-4; 1.3 µM in the test on SK-OV-3 [3]; 0.3 µM in the test on 786-0; 0.5 µM in the test on ACHN; 1 µM with SN12C; 1.3 µM in the test with TK-10. Besides, the results for the GI50 in the test on PC-3, with DU-145 and in the test with NCI/ADR-RES were 1.6 µM, 0.4 µM and 0.8 µM, respectively.
On to `COc1cc(/C=C/C(=O)CC(=O)/C=C/c2ccc(O)c(OC)c2)ccc1O` [Curcumin], for which the GI50 in the test with A549 [4] stood at 12.6 µM; with COLO 205 it was 12.6 µM; with SK-OV-3 [5], 7.9 µM. Further, the CC50 with A549 [4] stood at 79.4 µM; with COLO 205, 63.1 µM; with SK-OV-3 [5] it was 50.1 µM.
In the case of `O=C1C(=Cc2ccccc2O)CCCC1=Cc1ccccc1O` [EF4, 2,6Bis(2-hydroxybenzylidene)cyclohexanone], the GI50 with A549 [4] is 2.6 µM; with HOP-92 [6], 2.8 µM; in the test on COLO 205 it was 2 µM; in the test with SK-OV-3 [5], 6.7 µM. The CC50 in the test on A549 [4] was more than 100 µM; in the test on HOP-92 [6], 41.4 µM; in the test with COLO 205, 8.7 µM; in the test with SK-OV-3 [5] it was 63.6 µM.
`CC1(/C=C/c2ccccc2O)C=Cc2ccccc2O1` (stereo not shown) [EF7]: the GI50 in the test on A549 [4] stood at 14.9 µM; in the test on HOP-92 [6] it was 12.7 µM; in the test with COLO 205, 17.5 µM; in the test on SK-OV-3 [5] it was 16.6 µM. For the same compound, the CC50 was 53.3 µM in the test with A549 [4], 54.9 µM in the test on HOP-92 [6], 55.9 µM in the test on COLO 205 and 56.2 µM in the test with SK-OV-3 [5].
Regarding `O=C(C=Cc1ccc(F)cc1F)C=Cc1ccc(F)cc1F` [EF9, 1,5-Bis(2,4-difluorophenyl)penta-1,4-dien-3-one], the GI50 in the test on A549 [4] was 8.9 µM; with HOP-92 [6], 16.3 µM; with COLO 205, 7.6 µM; in the test with SK-OV-3 [5] it was 15.4 µM. For the same compound, the CC50 with A549 [4] amounted to 71 µM; in the test with HOP-92 [6], 70.4 µM; with COLO 205 it was 52.8 µM; in the test with SK-OV-3 [5], 53.7 µM.
As for `C(=C\c1ccccc1)/S/C=C/c1ccccc1` [EF15], the GI50 with HL-60 (TB) was 49.9 µM; in the test on K-562, 78.5 µM; in the test on MOLT-4 it was more than 100 µM; in the test on A549 [1], more than 100 µM; in the test with HOP-92 [2], more than 100 µM; in the test with NCI-H23, more than 100 µM. Further, the GI50 with NCI-H460 was more than 100 µM; in the test on HCC-2998 it was 31.6 µM; with HT29 it was 46.1 µM; with KM12, 55.7 µM; with SW-620, 79.8 µM; in the test on SF-295, 80.9 µM. In addition, the GI50 with SF-539 was more than 100 µM; in the test with SNB-19, more than 100 µM; in the test with SK-MEL-28 it was 83.7 µM; in the test on SK-MEL-5 it was 53.9 µM; in the test with UACC-257 it was 55.4 µM; in the test on OVCAR-3 it was more than 100 µM. The GI50 in the test with OVCAR-4, in the test with SK-OV-3 [3], in the test on 786-0, in the test with ACHN, in the test on SN12C and in the test with TK-10 was more than 100 µM throughout. Further, the GI50 in the test on PC-3, in the test on DU-145 and in the test on NCI/ADR-RES was more than 100 µM in each case.
As for `OC(CCc1ccc(F)cc1F)CCc1ccc(F)cc1F` [EF19, 1,5-Bis(2,4-difluorophenyl)-pentan-3-ol], the GI50 in the test with A549 [4] is 18 µM; in the test with HOP-92 [6], 17.5 µM; in the test on COLO 205, 17.5 µM; with SK-OV-3 [5], 18.5 µM. Besides, the CC50 was 65.8 µM in the test with A549 [4], 59.3 µM in the test with HOP-92 [6], 55.9 µM with COLO 205 and 65.9 µM with SK-OV-3 [5].
With `CC(=O)O.O=C1C(=Cc2ccccc2F)CNCC1=Cc1ccccc1F` [EF24, 3,5-Bis-(2-fluorobenzylidene)-piperidin-4-one-acetate], the GI50 with A549 [4] came to 1.9 µM; with HOP-92 [6], 3 µM; in the test with COLO 205, 0.8 µM; with SK-OV-3 [5] it was 1.7 µM. Further, the CC50 is 89.4 µM with A549 [4], 23.3 µM in the test on HOP-92 [6], 8 µM in the test with COLO 205 and 12.8 µM in the test with SK-OV-3 [5].
